Laboratory results: patent publication US10653672B2, “Myogenesis promotor, muscle atrophy inhibitor, medical composition and TAZ activator” (National University Corporation Tokyo Medical and Dental …, priority 2014, dated 2020)
Several values for one entry are separate records, joined by “and”; a condition that tells them apart may be missing. Equal entries are not always repeated.

Legend:
TAZ = assay: Quantitative real-time PCR, TAZ; format: cell-based, mouse; conditions: C2C12 cells, 10 μM; for Normarized mRNA abundance, TAZ: listed as IBS008738
Description: (1) Quantitative real-time PCR was performed with C2C12 cells immediately before the induction of muscle formation (0 h), and after culturing under differentiation condition in a culture medium added with IBS008738 or DMSO at a concentration of 10 μM for 24 hours (24 h) and 72 hours (72 h), respectively. […] The line and error bar indicate the average value and the standard error, **p<0.05, and ns refers to not significant.
The quantitative real-time PCR was performed with SYBER Green (Roche) and ABI7500 Realtime PCR system (Applied Biosystems).

Balb/c ByJ mice = assay: Recovery of cardiotoxin-induced muscle damage; format: in vivo, mouse; conditions: intraperitoneal injection of 100 mM stock on days 2, 4 and 6 after cardiotoxin; day 7
Description: Experiments were conducted with mice according to procedures approved by the Institutional Animal Case and Use Committee (see FIG. 9A to 9F). For the experiments, Balb/c ByJ mice (6 weeks, female) were used. The bar in the figures is 50 μm. The line and the error bar indicate the average value and the standard error, *p<0.05, i.e refers to intramuscular injection, and i.p refers to intraperitoneal injection.
(1) Cardiotoxin was diluted to 10 μM with phosphate buffered saline (PBS). The cardiotoxin solution (100 μl) was added with 0.3 μL of DMSO, or 0.3 μL of 10 mM IBS008738 stock solution in DMSO, respectively, and the solution was injected to the anterior tibial muscles on the right and the left, respectively. Three mice were used for one experiment, and the experiment was performed twice. The mice were sacrificed at day 5. […]
(3) Observation of muscle tissues was performed by fixing the anterior tibial muscle with 4% formalin and embedding the same in paraffin or O.C.T. compound, and staining muscle sections of 5 μm with haematoxylin and eosin. Further, Pax 7 was detected with anti-Pax 7 antibody and visualized with 3,3′-diaminobenzidine. […] The number of the Pax7-positive cells and the number of the centrally nucleated muscle fibers were counted at 6 fields at 20-fold magnification. […]

C2C12 cells [1] = assay: Immunofluorescence of endogenous MyoD and TAZ in C2C12 cells; format: cell-based, mouse; conditions: 10 μM
Description: Immunostaining of endogenous MyoD and TAZ in C2C12 cells was performed at three stages, i.e., after being cultured in a medium added with IBS008738 or DMSO at a concentration of 10 μM under growth condition for 24 hours, after being cultured under differentiation condition for 24 hours, and after being cultured under differentiation condition for 72 hours (see FIG. 7B). Both MyoD and TAZ existed at each of the three stages. After being cultured under growth condition for 24 hours, MyoD and TAZ were diffusely distributed in the nuclei (top), but formed dots under differentiation condition. After being cultured under differentiation condition for 24 hours, some cells strongly expressed TAZ, whereas other cells expressed more MyoD (middle). After being cultured under differentiation condition for 72 hours, in the single-nuclear cells, TAZ expression decreased while MyoD was still expressed. In the multi-nuclear cells, both TAZ and MyoD were expressed and colocalized in the nuclei (bottom). […] However, at 24 hours under differentiation condition, colocalization of TAZ and MyoD in the single-nuclear cells and generation of cells with two or three nuclei were promoted in the case with IBS008738 as compared with the case with DMSO (middle). […] The immunostaining and the immunofluorescence analysis were performed by the method described in Exp Cell Res 313:1484-1495. The line in the figures is 50 μm.

HCT116 cells = assay: Immunoblotting of EMT markers in HCT116 cells; format: cell-based, human
Description: (1) A431 cells, (epidermoid carcinoma), A549 cells (adenocarcinomic human alveolar basal epithelial cell) and HCT116 cells (human colon cancer) were treated with IBS008738 or DMSO, respectively, and evaluated by immunoblotting.
HEK293, A431, A549, HCT116, MCF7 and SW480 cells were cultured in Dulbecco's Modified Eagle Medium (DMEM) containing 10% fetal bovine serum (FBS), 10 mM HEPES-NaOH at pH 7.4, 100 U/ml penicillin and 100 mg/I streptomycin under 5% CO2 at 37° C.

C2C12 cells [2] = assay: Evaluation of muscle differentiation markers by immunoblotting; format: cell-based, mouse; conditions: 10 μM
Description: (1) C2C12 cells were cultured for 24 hours under growth condition in a culture medium added with IBS008738 or DMSO at a concentration of 10 μM, and switched to differentiation condition and the cultivation was continued. The expression of markers indicating muscle differentiation was determined with a predetermined antibody, on the C2C12 cells immediately after the completion of cultivation under growth condition (0 h), 24 hours after switching to differentiation condition (24 h), 48 hours after switching to differentiation condition (48 h) and 72 hours after switching to differentiation condition (72 h), respectively. Tubulin was used as a loading control (FIG. 3A).

## Cc1ccc(-n2cnc(/N=C/N3CCOCC3)c2C(=O)c2ccccc2)cc1 [exemplary compound 1]
TAZ; 24 h and 72 h
  expression of TAZ (gene transcription) compared with DMSO: did not change
TAZ; differentiation condition 24 h
  Normarized mRNA abundance, TAZ: 0.88 and 0.94
TAZ; differentiation condition 72 h
  Normarized mRNA abundance, TAZ: 1.44 and 1.36 and 1.41
Balb/c ByJ mice
  number of the Pax7-positive cells compared with DMSO: greater
  number of the centrally nucleated muscle fibers compared with DMSO: greater
C2C12 cells [1]; 24 hours under differentiation condition, compared with DMSO
  colocalization of TAZ and MyoD in the single-nuclear cells and generation of cells with two or three nuclei: promoted
C2C12 cells [1]; 72 hours under differentiation condition, compared with DMSO
  multinuclear cells: remarkably increased
C2C12 cells [1]; growth condition 24 hours
  MyoD and TAZ immunostaining compared with DMSO: no significant difference from the case with DMSO was not observed
HCT116 cells
  EMT markers (fibronectin, E-cadherin, N-cadherin and vimentin) compared with DMSO: no significant difference
C2C12 cells [2]
  decrease in the expression of Pax7 compared with DMSO: faster to decrease
  expression of MHC compared with DMSO: became significant on days 3 and 4
  expression of TAZ: became most significant on day 2
  expression of myogenin compared with DMSO: became stronger after day 2
C2C12 cells [2]; day 1 after the addition
  expression of MyoD compared with DMSO: slightly higher
